# In ChEMBL document CHEMBL1121709, “Importance of the aromatic ring in adrenergic amines. 6. Nonaromatic analogues of phenylethanolamine as inhibitors of phenylethanolamine N-methyltransferase: role of pi-electronic and steric interactions” (J Med Chem, 1981):
# Molecular target: T1, Phenylethanolamine N-methyltransferase (Bos taurus, UniProt P10938)
# T1 sequence (P10938 whole entry): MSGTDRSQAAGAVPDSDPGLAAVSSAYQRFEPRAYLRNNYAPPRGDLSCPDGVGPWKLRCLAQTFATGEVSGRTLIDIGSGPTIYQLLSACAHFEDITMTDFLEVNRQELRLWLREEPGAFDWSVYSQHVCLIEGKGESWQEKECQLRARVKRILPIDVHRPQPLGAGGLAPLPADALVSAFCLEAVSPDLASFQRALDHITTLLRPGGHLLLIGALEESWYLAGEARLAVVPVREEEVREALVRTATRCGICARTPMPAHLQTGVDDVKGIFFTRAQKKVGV
# Test: The compound was measured for the 50% inhibition of phenylethanolamine N-methyl-transferase
row,SMILES,IC50
1,NCC(O)C1CCCCCCC1 (stereo not drawn),8 µM
2,NCC(O)C1CC2C=CC1C2 (stereo in doubt; 10),1100 µM
3,NCC(O)C1CC2CCC1C2 (stereo in doubt; 13),475 µM

# Next, values leading:
row,IC50,SMILES
1,195 µM,NCC(O)C12CC3C[C@H](C1)C[C@H](C3)C2 (stereo partly drawn)
2,454 µM,NCC(O)C1CC2C=CC1C2 (stereo in doubt; 9)
3,193 µM,NCC(O)C1CC2CCC1C2 (stereo in doubt; 12)

# Molecular target: T1, Phenylethanolamine N-methyltransferase
# Test: The compound was measured for the 50% inhibition of phenylethanolamine N-methyl-transferase; 50% inhibition was not achieved at 10e-3 M
row,IC50,SMILES
1,> 1000 µM,NCC(O)C12C=CC(CC1)C2 (stereo not drawn)
2,> 1000 µM,NCC(O)C12CCC(CC1)C2 (stereo not drawn)
